Results reported in ChEMBL document CHEMBL5120822, “Inhibition of the P2X7/NLRP3 Inflammasome Signaling Pathway by Deacetylgedunin from Toona sinensis” (J Nat Prod, 2022).

System: RAW264.7
Assay: Antiinflammatory activity in mouse RAW264.7 assessed as inhibition of LPS-induced NO production incubated for 1 hrs followed by LPS stimulation for 18 hrs by Griess reagent based assay
Format: functional, cell-based

CNC(=N)NCCC[C@H](N)C(=O)O [TILARGININE]
IC50: 44.4 µM
